According to the NIST ThermoML archive (doi:10.1016/j.jct.2004.06.009):
± gives the expanded uncertainty stated by the source.

Test: molar heat capacity at constant pressure
Conditions: 101.33 kPa

CCC12CC3CC(CC(C3)C1)C2 [1-ethyladamantane]
molar heat capacity at constant pressure (176.11 K, Crystal): 129.2 ± 1.3 J/K/mol | molar heat capacity at constant pressure (177.66 K, Crystal): 130.08 ± 1.3 J/K/mol | molar heat capacity at constant pressure (179.2 K, Crystal): 131.06 ± 1.3 J/K/mol | molar heat capacity at constant pressure (180.74 K, Crystal): 132.22 ± 1.3 J/K/mol | molar heat capacity at constant pressure (182.28 K, Crystal): 133.41 ± 1.3 J/K/mol | molar heat capacity at constant pressure (183.82 K, Crystal): 134.59 ± 1.3 J/K/mol | molar heat capacity at constant pressure (185.36 K, Crystal): 135.72 ± 1.3 J/K/mol | molar heat capacity at constant pressure (186.9 K, Crystal): 136.96 ± 1.4 J/K/mol | molar heat capacity at constant pressure (188.44 K, Crystal): 138.08 ± 1.4 J/K/mol | molar heat capacity at constant pressure (189.98 K, Crystal): 139.07 ± 1.4 J/K/mol | molar heat capacity at constant pressure (191.52 K, Crystal): 140.27 ± 1.4 J/K/mol | molar heat capacity at constant pressure (193.06 K, Crystal): 141.34 ± 1.4 J/K/mol | molar heat capacity at constant pressure (194.59 K, Crystal): 142.65 ± 1.4 J/K/mol | molar heat capacity at constant pressure (196.12 K, Crystal): 143.78 ± 1.4 J/K/mol | molar heat capacity at constant pressure (197.65 K, Crystal): 144.95 ± 1.4 J/K/mol | molar heat capacity at constant pressure (199.17 K, Crystal): 146.07 ± 1.4 J/K/mol | molar heat capacity at constant pressure (200.7 K, Crystal): 147.28 ± 1.4 J/K/mol | molar heat capacity at constant pressure (202.23 K, Crystal): 148.71 ± 1.4 J/K/mol | molar heat capacity at constant pressure (205.28 K, Crystal): 150.89 ± 1.4 J/K/mol | molar heat capacity at constant pressure (206.8 K, Crystal): 152.02 ± 1.4 J/K/mol | molar heat capacity at constant pressure (208.31 K, Crystal): 152.99 ± 1.4 J/K/mol | molar heat capacity at constant pressure (209.83 K, Crystal): 154.47 ± 1.4 J/K/mol | molar heat capacity at constant pressure (211.34 K, Crystal): 155.33 ± 1.4 J/K/mol | molar heat capacity at constant pressure (212.86 K, Crystal): 156.65 ± 1.4 J/K/mol | molar heat capacity at constant pressure (214.37 K, Crystal): 157.99 ± 1.4 J/K/mol | molar heat capacity at constant pressure (215.88 K, Crystal): 159.85 ± 1.4 J/K/mol | molar heat capacity at constant pressure (217.38 K, Crystal): 161.46 ± 1.4 J/K/mol | molar heat capacity at constant pressure (218.88 K, Crystal): 163.87 ± 1.5 J/K/mol | molar heat capacity at constant pressure (220.38 K, Crystal): 167.18 ± 1.5 J/K/mol | molar heat capacity at constant pressure (228.19 K, Liquid): 213.96 ± 1.7 J/K/mol | molar heat capacity at constant pressure (229.69 K, Liquid): 214.76 ± 1.7 J/K/mol | molar heat capacity at constant pressure (231.15 K, Liquid): 216.02 ± 1.7 J/K/mol | molar heat capacity at constant pressure (232.62 K, Liquid): 216.73 ± 1.7 J/K/mol | molar heat capacity at constant pressure (234.09 K, Liquid): 217.38 ± 1.7 J/K/mol | molar heat capacity at constant pressure (235.55 K, Liquid): 218.44 ± 1.7 J/K/mol | molar heat capacity at constant pressure (237.02 K, Liquid): 218.96 ± 1.7 J/K/mol | molar heat capacity at constant pressure (238.48 K, Liquid): 219.64 ± 1.7 J/K/mol | molar heat capacity at constant pressure (239.95 K, Liquid): 220.45 ± 1.7 J/K/mol | molar heat capacity at constant pressure (241.41 K, Liquid): 222.1 ± 1.7 J/K/mol | molar heat capacity at constant pressure (242.87 K, Liquid): 222.52 ± 1.7 J/K/mol | molar heat capacity at constant pressure (244.34 K, Liquid): 223.6 ± 1.7 J/K/mol | molar heat capacity at constant pressure (245.81 K, Liquid): 224.53 ± 1.7 J/K/mol | molar heat capacity at constant pressure (247.27 K, Liquid): 225.06 ± 1.7 J/K/mol | molar heat capacity at constant pressure (248.74 K, Liquid): 225.78 ± 1.7 J/K/mol | molar heat capacity at constant pressure (250.2 K, Liquid): 226.74 ± 1.7 J/K/mol | molar heat capacity at constant pressure (251.63 K, Liquid): 227.78 ± 1.7 J/K/mol | molar heat capacity at constant pressure (253.09 K, Liquid): 228.8 ± 1.7 J/K/mol | molar heat capacity at constant pressure (254.56 K, Liquid): 229.67 ± 1.7 J/K/mol | molar heat capacity at constant pressure (256.02 K, Liquid): 230.53 ± 1.7 J/K/mol | molar heat capacity at constant pressure (257.48 K, Liquid): 231.41 ± 1.7 J/K/mol | molar heat capacity at constant pressure (258.94 K, Liquid): 232.48 ± 1.7 J/K/mol | molar heat capacity at constant pressure (260.41 K, Liquid): 233.18 ± 1.7 J/K/mol | molar heat capacity at constant pressure (261.87 K, Liquid): 234.01 ± 1.7 J/K/mol | molar heat capacity at constant pressure (263.33 K, Liquid): 235.14 ± 1.7 J/K/mol | molar heat capacity at constant pressure (264.79 K, Liquid): 236.35 ± 1.8 J/K/mol | molar heat capacity at constant pressure (266.25 K, Liquid): 237.17 ± 1.8 J/K/mol | molar heat capacity at constant pressure (267.71 K, Liquid): 238.18 ± 1.8 J/K/mol | molar heat capacity at constant pressure (269.18 K, Liquid): 238.96 ± 1.8 J/K/mol | molar heat capacity at constant pressure (270.64 K, Liquid): 240.09 ± 1.8 J/K/mol | molar heat capacity at constant pressure (272.1 K, Liquid): 240.99 ± 1.8 J/K/mol | molar heat capacity at constant pressure (273.56 K, Liquid): 242.19 ± 1.8 J/K/mol | molar heat capacity at constant pressure (274.98 K, Liquid): 242.56 ± 1.8 J/K/mol | molar heat capacity at constant pressure (276.44 K, Liquid): 243.82 ± 1.8 J/K/mol | molar heat capacity at constant pressure (277.9 K, Liquid): 244.9 ± 1.8 J/K/mol | molar heat capacity at constant pressure (279.36 K, Liquid): 245.49 ± 1.8 J/K/mol | molar heat capacity at constant pressure (280.82 K, Liquid): 246.39 ± 1.8 J/K/mol | molar heat capacity at constant pressure (282.28 K, Liquid): 247.77 ± 1.8 J/K/mol | molar heat capacity at constant pressure (283.74 K, Liquid): 248.37 ± 1.8 J/K/mol | molar heat capacity at constant pressure (285.2 K, Liquid): 249.48 ± 1.8 J/K/mol | molar heat capacity at constant pressure (286.65 K, Liquid): 250.83 ± 1.8 J/K/mol | molar heat capacity at constant pressure (288.11 K, Liquid): 251.75 ± 1.8 J/K/mol | molar heat capacity at constant pressure (289.57 K, Liquid): 252.24 ± 1.8 J/K/mol | molar heat capacity at constant pressure (291.03 K, Liquid): 253.03 ± 1.8 J/K/mol | molar heat capacity at constant pressure (292.48 K, Liquid): 254.46 ± 1.8 J/K/mol | molar heat capacity at constant pressure (293.94 K, Liquid): 255.49 ± 1.8 J/K/mol | molar heat capacity at constant pressure (295.4 K, Liquid): 256.65 ± 1.8 J/K/mol | molar heat capacity at constant pressure (296.85 K, Liquid): 257.72 ± 1.8 J/K/mol | molar heat capacity at constant pressure (298.28 K, Liquid): 258.45 ± 1.8 J/K/mol | molar heat capacity at constant pressure (299.74 K, Liquid): 259.79 ± 1.8 J/K/mol | molar heat capacity at constant pressure (301.19 K, Liquid): 260.37 ± 1.8 J/K/mol | molar heat capacity at constant pressure (302.65 K, Liquid): 261.81 ± 1.9 J/K/mol | molar heat capacity at constant pressure (304.1 K, Liquid): 262.96 ± 1.9 J/K/mol | molar heat capacity at constant pressure (305.56 K, Liquid): 263.59 ± 1.9 J/K/mol | molar heat capacity at constant pressure (307.02 K, Liquid): 264.26 ± 1.9 J/K/mol | molar heat capacity at constant pressure (308.47 K, Liquid): 265.38 ± 1.9 J/K/mol | molar heat capacity at constant pressure (309.93 K, Liquid): 266.44 ± 1.9 J/K/mol | molar heat capacity at constant pressure (311.38 K, Liquid): 267.77 ± 1.9 J/K/mol | molar heat capacity at constant pressure (312.84 K, Liquid): 268.68 ± 1.9 J/K/mol | molar heat capacity at constant pressure (314.29 K, Liquid): 268.95 ± 1.9 J/K/mol | molar heat capacity at constant pressure (315.75 K, Liquid): 271 ± 1.9 J/K/mol | molar heat capacity at constant pressure (317.21 K, Liquid): 271.58 ± 1.9 J/K/mol | molar heat capacity at constant pressure (318.66 K, Liquid): 272.26 ± 1.9 J/K/mol | molar heat capacity at constant pressure (320.12 K, Liquid): 273.19 ± 1.9 J/K/mol | molar heat capacity at constant pressure (321.55 K, Liquid): 274.59 ± 1.9 J/K/mol | molar heat capacity at constant pressure (323 K, Liquid): 275.5 ± 1.9 J/K/mol | molar heat capacity at constant pressure (324.46 K, Liquid): 276.62 ± 1.9 J/K/mol | molar heat capacity at constant pressure (325.92 K, Liquid): 277.16 ± 1.9 J/K/mol | molar heat capacity at constant pressure (327.37 K, Liquid): 278.45 ± 1.9 J/K/mol | molar heat capacity at constant pressure (328.83 K, Liquid): 279.65 ± 1.9 J/K/mol | molar heat capacity at constant pressure (330.29 K, Liquid): 280.77 ± 1.9 J/K/mol | molar heat capacity at constant pressure (331.75 K, Liquid): 281.88 ± 1.9 J/K/mol | molar heat capacity at constant pressure (332.28 K, Liquid): 282.18 ± 1.9 J/K/mol | molar heat capacity at constant pressure (333.21 K, Liquid): 282.65 ± 1.9 J/K/mol | molar heat capacity at constant pressure (333.65 K, Liquid): 283.08 ± 1.9 J/K/mol | molar heat capacity at constant pressure (334.66 K, Liquid): 283.89 ± 1.9 J/K/mol | molar heat capacity at constant pressure (335.01 K, Liquid): 284.12 ± 1.9 J/K/mol | molar heat capacity at constant pressure (336.12 K, Liquid): 284.89 ± 1.9 J/K/mol | molar heat capacity at constant pressure (336.37 K, Liquid): 285.08 ± 1.9 J/K/mol | molar heat capacity at constant pressure (337.58 K, Liquid): 285.8 ± 1.9 J/K/mol | molar heat capacity at constant pressure (337.72 K, Liquid): 286.15 ± 1.9 J/K/mol | molar heat capacity at constant pressure (339.07 K, Liquid): 287.35 ± 1.9 J/K/mol | molar heat capacity at constant pressure (340.41 K, Liquid): 288.22 ± 1.9 J/K/mol | molar heat capacity at constant pressure (341.76 K, Liquid): 289.11 ± 2 J/K/mol | molar heat capacity at constant pressure (342.95 K, Liquid): 290.27 ± 2 J/K/mol | molar heat capacity at constant pressure (344.28 K, Liquid): 291.29 ± 2 J/K/mol | molar heat capacity at constant pressure (345.62 K, Liquid): 292.19 ± 2 J/K/mol | molar heat capacity at constant pressure (346.95 K, Liquid): 292.96 ± 2 J/K/mol | molar heat capacity at constant pressure (348.28 K, Liquid): 294.44 ± 2 J/K/mol | molar heat capacity at constant pressure (349.61 K, Liquid): 295.79 ± 2 J/K/mol | molar heat capacity at constant pressure (350.93 K, Liquid): 296.76 ± 2 J/K/mol | molar heat capacity at constant pressure (352.25 K, Liquid): 297.68 ± 2 J/K/mol | molar heat capacity at constant pressure (353.57 K, Liquid): 298.69 ± 2 J/K/mol | molar heat capacity at constant pressure (354.88 K, Liquid): 299.75 ± 2 J/K/mol | molar heat capacity at constant pressure (356.19 K, Liquid): 300.53 ± 2 J/K/mol | molar heat capacity at constant pressure (357.5 K, Liquid): 301.48 ± 2 J/K/mol | molar heat capacity at constant pressure (358.78 K, Liquid): 302.8 ± 2 J/K/mol | molar heat capacity at constant pressure (360.08 K, Liquid): 303.82 ± 2 J/K/mol | molar heat capacity at constant pressure (361.37 K, Liquid): 304.5 ± 2 J/K/mol | molar heat capacity at constant pressure (362.66 K, Liquid): 305.46 ± 2 J/K/mol | molar heat capacity at constant pressure (363.76 K, Liquid): 305.56 ± 2 J/K/mol | molar heat capacity at constant pressure (365.04 K, Liquid): 306.42 ± 2 J/K/mol | molar heat capacity at constant pressure (366.32 K, Liquid): 307.62 ± 2 J/K/mol | molar heat capacity at constant pressure (367.59 K, Liquid): 308.68 ± 2 J/K/mol | molar heat capacity at constant pressure (368.87 K, Liquid): 309.55 ± 2 J/K/mol | molar heat capacity at constant pressure (370.13 K, Liquid): 310.5 ± 2 J/K/mol | molar heat capacity at constant pressure (371.4 K, Liquid): 311.2 ± 2 J/K/mol | molar heat capacity at constant pressure (372.65 K, Liquid): 312.25 ± 2 J/K/mol | molar heat capacity at constant pressure (373.9 K, Liquid): 313.52 ± 2 J/K/mol
